Each structure is given as a SMILES string. Activity calls are given as the source filed them. The rule behind the calls is not given here.

For data set [1], the system named is A498. The experiment in a line: Antiproliferative activity against human A498 cells expressing EGFR and Src after 48 hrs by SRB assay. Type of data set: functional, cell-based. The note with it: A498, 48 h. (In general: The SRB assay estimates cell density from bound dye.)
Data set [2] has as its system KB. The experiment in a line: Antiproliferative activity against human KB cells expressing EGFR and Src after 48 hrs by SRB assay. Type of data set: functional, cell-based.
Data set [3] addresses Epidermal growth factor receptor (Homo sapiens, UniProt P00533). The experiment in a line: Inhibition of EGFR (unknown origin) assessed as incorporation of 33Pi after 1 hr by ELISA. A general note: In an ELISA, binding on a coated surface is turned into a signal by an enzyme label.
The subject of data set [4] is Mus musculus. The experiment in a line: Toxicity in mouse LLC cells allografted SCID mouse assessed as mortality at 100 mg/kg, po qd for 14 days. In kind it is organism-based. The note with it: in vivo, 336 h.
Data set [5] has as its system Lewis lung carcinoma cell line. The experiment in a line: Antitumor activity against mouse LLC cells allografted in SCID mouse assessed as inhibition of tumor growth at 100 mg/kg, po qd for 14 days. Type of data set: functional, organism-based.
For data set [6], the system named is Mus musculus. The experiment in a line: Toxicity in mouse LLC cells allografted SCID mouse assessed as change in body weight at 100 mg/kg, po qd for 14 days. Type of data set: organism-based. Particulars: in vivo, 336 h.
Data set [7] has as its system Lewis lung carcinoma cell line. The experiment in a line: Antitumor activity against mouse LLC cells allografted in SCID mouse assessed as extension of survival period at 100 mg/kg, po qd for 14 days. Type of data set: functional, organism-based.

Sequence of Epidermal growth factor receptor (P00533 whole entry): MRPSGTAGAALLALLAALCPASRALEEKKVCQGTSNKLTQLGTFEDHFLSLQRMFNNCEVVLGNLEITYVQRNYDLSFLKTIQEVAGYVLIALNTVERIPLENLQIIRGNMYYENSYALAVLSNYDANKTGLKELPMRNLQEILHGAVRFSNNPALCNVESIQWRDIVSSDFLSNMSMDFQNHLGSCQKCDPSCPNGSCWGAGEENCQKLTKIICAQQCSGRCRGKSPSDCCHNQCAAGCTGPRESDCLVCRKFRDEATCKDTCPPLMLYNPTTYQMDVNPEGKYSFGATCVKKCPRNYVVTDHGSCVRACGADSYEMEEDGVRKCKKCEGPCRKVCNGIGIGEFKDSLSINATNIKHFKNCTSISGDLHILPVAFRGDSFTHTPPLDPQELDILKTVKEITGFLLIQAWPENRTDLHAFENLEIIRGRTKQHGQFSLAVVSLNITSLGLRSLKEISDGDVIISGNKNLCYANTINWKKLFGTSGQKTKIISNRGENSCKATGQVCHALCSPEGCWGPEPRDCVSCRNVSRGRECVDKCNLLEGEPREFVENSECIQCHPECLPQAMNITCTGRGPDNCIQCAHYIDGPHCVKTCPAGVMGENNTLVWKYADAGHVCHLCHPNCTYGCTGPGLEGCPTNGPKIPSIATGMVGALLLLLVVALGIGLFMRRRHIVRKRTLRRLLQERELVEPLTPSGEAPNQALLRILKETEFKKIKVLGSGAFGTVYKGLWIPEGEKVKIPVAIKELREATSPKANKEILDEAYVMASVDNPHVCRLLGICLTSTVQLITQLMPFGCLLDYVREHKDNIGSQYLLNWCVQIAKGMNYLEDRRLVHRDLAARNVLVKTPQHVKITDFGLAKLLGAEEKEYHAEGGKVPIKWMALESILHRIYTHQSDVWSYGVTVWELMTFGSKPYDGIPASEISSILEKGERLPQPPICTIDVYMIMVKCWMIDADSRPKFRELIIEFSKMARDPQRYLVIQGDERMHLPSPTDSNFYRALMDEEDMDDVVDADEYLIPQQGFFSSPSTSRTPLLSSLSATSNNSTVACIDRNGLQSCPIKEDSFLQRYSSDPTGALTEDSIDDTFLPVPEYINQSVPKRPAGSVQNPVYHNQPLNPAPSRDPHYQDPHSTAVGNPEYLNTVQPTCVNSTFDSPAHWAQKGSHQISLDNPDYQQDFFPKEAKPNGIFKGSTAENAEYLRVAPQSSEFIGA

With `COCCn1c(=O)oc2cc3ncnc(Nc4ccc(OCc5ccc(Cl)cc5)c(Cl)c4)c3cc21`, the IC50 worked out at 6.2 µM in data set [1], 6.1 µM in data set [2] and 1.3 µM in data set [3].
Consider `CCOC(=O)CCCn1c(=O)oc2cc3ncnc(Nc4cc(C(=O)OCC)ccc4O)c3cc21`, for which the figures for the concentration for half-maximal inhibition (IC50) in data set [1], in data set [2] and in data set [3] were 61.6 µM, 19.5 µM and 0.0073 µM, respectively.
For the compound `COCCn1c(=O)oc2cc3ncnc(Nc4ccc(Cl)cc4)c3cc21`, in data set [3], the half-maximal inhibitory concentration (IC50) is greater than 10 µM.
Same read-out and setting: under `COCCn1c(=O)oc2cc3ncnc(Nc4ccc(OC)c(OC)c4)c3cc21` stands 5.5 µM; under `COCCn1c(=O)oc2cc3ncnc(Nc4cccc(OC(C)C)c4)c3cc21`, greater than 10 µM.
Still for that read-out and setting: under `CCOC(=O)CCCn1c(=O)oc2cc3ncnc(NCc4ccccc4)c3cc21` stands greater than 10 µM.
Consider `CCOC(=O)CCCn1c(=O)oc2cc3ncnc(Nc4ccc(OCc5ccccn5)cc4)c3cc21`, for which the IC50 stood at 47 µM in data set [1] and 16.6 µM in data set [2].
On the same counts, the results for `CCOC(=O)CCCn1c(=O)oc2cc3ncnc(Nc4ccc(C(=O)OCc5ccc(Cl)cc5)cc4)c3cc21` are 8.7 µM and 5.5 µM.
For the compound `C#Cc1cccc(Nc2ncnc3cc4oc(=O)n(CCOC)c4cc23)c1`, in data set [3], the IC50 was found to be 0.19 µM.
For `C#Cc1cccc(Nc2ncnc3cc4oc(=O)n(CCCC(=O)OCC)c4cc23)c1`, the IC50 in data set [3] was 5.7 µM.
On the same count and under the same terms, the figure for `CCOC(=O)CCCn1c(=O)oc2cc3ncnc(Nc4ccc(OCc5ccc(Cl)cc5)c(Cl)c4)c3cc21` is 0.053 µM; for `COCCn1c(=O)oc2cc3ncnc(Nc4ccc(S(N)(=O)=O)cc4)c3cc21` it is greater than 10 µM; for `CCOC(=O)CCCn1c(=O)oc2cc3ncnc(N[C@H](C)c4ccccc4)c3cc21` it is greater than 10 µM.
On to `CCOC(=O)CCCn1c(=O)oc2cc3ncnc(Nc4cc(C)cc(C)c4)c3cc21`, for which the IC50 in data set [3] came to 1.5 µM.
Same read-out and setting: under `CCOC(=O)CCCn1c(=O)oc2cc3ncnc(Nc4ccc(OCC)cc4)c3cc21` stands greater than 10 µM; under `CCOC(=O)CCCn1c(=O)oc2cc3ncnc(Nc4ccc(OCc5nccc(OCC(F)(F)F)c5C)cc4)c3cc21`, 0.78 µM.
Still for that read-out and setting: the figure for `CCOC(=O)CCCn1c(=O)oc2cc3ncnc(Nc4ccccc4)c3cc21` is greater than 10 µM; for `CCOC(=O)CCCn1c(=O)oc2cc3ncnc(Nc4ccc(OC)c(OC)c4)c3cc21` it is greater than 10 µM.
Regarding `CCOC(=O)CCCn1c(=O)oc2cc3ncnc(Nc4ccc(O)cc4)c3cc21`, the values for the IC50 in data set [1], in data set [2] and in data set [3] were 15.2 µM, 11.1 µM and 0.02 µM, respectively.
For the compound `CCOC(=O)CCCn1c(=O)oc2cc3ncnc(Nc4ccc(F)c(Cl)c4)c3cc21`, in data set [3], the IC50 was found to be 7.8 µM.
Regarding `CCOC(=O)CCCn1c(=O)oc2cc3ncnc(Nc4ccc(Cl)cc4)c3cc21`, the IC50 in data set [3] is 1.2 µM.
On the same count and under the same terms, under `CCOC(=O)CCCn1c(=O)oc2cc3ncnc(N[C@@H](C)c4ccccc4)c3cc21` stands greater than 10 µM; under `COCCn1c(=O)oc2cc3ncnc(Nc4ccc(C(C)(C)C)cc4)c3cc21`, greater than 10 µM.
With `COCCn1c(=O)oc2cc3ncnc(Nc4ccc(F)c(F)c4)c3cc21`, the figures for the half-maximal inhibitory concentration (IC50) in data set [1], in data set [2] and in data set [3] were 17.6 µM, 1.1 µM and 0.026 µM, respectively.
Consider `COCCn1c(=O)oc2cc3ncnc(Nc4ccc(OCc5nccc(OCC(F)(F)F)c5C)cc4)c3cc21`, for which the IC50 in data set [3] was 0.34 µM.
For `CCOC(=O)CCCn1c(=O)oc2cc3ncnc(Nc4ccc(S(N)(=O)=O)cc4)c3cc21`, the IC50 is 8 µM in data set [1], 18.7 µM in data set [2] and greater than 10 µM in data set [3].
As to `CCOC(=O)CCCn1c(=O)oc2cc3ncnc(Nc4ccc(C(=O)OCc5ccc(C#N)cc5)cc4)c3cc21`, the IC50 in data set [3] was greater than 10 µM.
The same measure, in the same setting: the figure for `CCOC(=O)CCCn1c(=O)oc2cc3ncnc(Nc4ccc(C(C)(C)C)cc4)c3cc21` is greater than 10 µM.
`CCOC(=O)CCCn1c(=O)oc2cc3ncnc(Nc4ccc(OC(C)C)cc4)c3cc21`: the IC50 in data set [1] was determined as 41.1 µM; in data set [2], 18.6 µM; in data set [3] it was 0.16 µM.
For the compound `CCOC(=O)CCCn1c(=O)oc2cc3ncnc(Nc4ccc(OCc5ccccc5)c(Cl)c4)c3cc21`, the IC50 in data set [3] was greater than 10 µM.
On the same count and under the same terms, the figure for `CCOC(=O)CCCn1c(=O)oc2cc3ncnc(Nc4ccc(C)cc4)c3cc21` is greater than 10 µM.
As to `CCOC(=O)c1ccc(O)c(Nc2ncnc3cc4oc(=O)n(CCOC)c4cc23)c1`, the IC50 in data set [1] came out at 17.1 µM; in data set [2], 6.3 µM; in data set [3], 0.44 µM.
As to `C#Cc1cccc(Nc2ncnc3cc(OCCOC)c(OCCOC)cc23)c1` [ERLOTINIB], in data set [4], the Activity entry was “Non-toxic”. Besides, the “growth inhibition (GI)” value in data set [5] was “Active”.
For the compound `COCCn1c(=O)oc2cc3ncnc(Nc4ccc(F)c(Cl)c4)c3cc21`, the half-maximal inhibitory concentration (IC50) in data set [3] turned out to be 0.47 µM.
As for `CCOC(=O)CCCn1c(=O)oc2cc3ncnc(Nc4ccc(F)c(F)c4)c3cc21`, the figures for the IC50 in data set [1], in data set [2] and in data set [3] were 36.4 µM, 17.9 µM and 0.14 µM, respectively.
Take `CCOC(=O)CCCn1c(=O)oc2cc3ncnc(Nc4cccc(O)c4)c3cc21`: the Activity entry in data set [6] was “Toxic”; in data set [4], “Non-toxic”. The IC50 in data set [1] was 7.6 µM; in data set [2], 3.7 µM; in data set [3], 0.0087 µM. Also, in data set [7], the result was inactive. Moreover, the “growth inhibition (GI)” value in data set [5] was “Active”.
As for `CCOC(=O)CCCn1c(=O)oc2cc3ncnc(Nc4ccc(OCc5ccc(OC)cc5)c(Cl)c4)c3cc21`, the IC50 in data set [3] was greater than 10 µM.
With `COCCn1c(=O)oc2cc3ncnc(Nc4cccc(C(C)=O)c4)c3cc21`, the IC50 in data set [3] was 0.56 µM.
For the compound `CCOC(=O)CCCn1c(=O)oc2cc3ncnc(Nc4ccc5[nH]ncc5c4)c3cc21`, the IC50 in data set [1] came out at 26.8 µM; in data set [2], 38.4 µM; in data set [3], 0.13 µM.
As to `COCCn1c(=O)oc2cc3ncnc(Nc4ccc(OC)cc4)c3cc21`, the half-maximal inhibitory concentration (IC50) turned out to be 33.5 µM in data set [1], 11.7 µM in data set [2] and 5.1 µM in data set [3].

As a reminder, the IC50 is the concentration that gives 50% inhibition.

These data come from ChEMBL document CHEMBL3611993, “Design, synthesis and biological activities of novel oxazolo[4,5-g]quinazolin-2(1H)-one derivatives as EGFR inhibitors” (Eur J Med Chem, 2015).
